{"source": "patent US8410337B2", "about": "“Plant tubby-like proteins” (Academia Sinica, priority 2003, dated 2013)", "key": {"Arabidopsis seeds": {"test_system": "Arabidopsis seeds", "experiment": "Seed germination on media containing ABA", "type": "in vivo, Arabidopsis thaliana", "details": "1 μM ABA", "method": "(§1) All seeds of the above-described lines were surface sterilized with 70% ethanol for 30 s and then with 6% household bleach for 5 min before being washed five times with sterile water. For aseptic growth, they were plated on solid medium containing Murashige and Skoog salts (Invitrogen), vitamins (Duchefa), 0.7% phytoagar (Invitrogen), and 1% sucrose and transferred to a tissue culture room. For soil growth, seedlings were transferred into individual pots 8-10 days after germination and maintained in the growth chamber. Plants were grown at 22° C. under a 16-hr-light/8-hr-dark photoperiod aseptically or on soil.\nTo determine whether the transgenic plants display altered ABA responses, the above-described lines were germinated on media containing various concentrations of ABA. Seeds collected at the same or similar times were used. After surface-sterilization, sterile seeds were suspended in 0.15% agarose, and kept in the dark at 4° C. for 3 days to break residual dormancy. The seeds were then plated on agar plates in six replicates containing no ABA or 0.25, 0.5, 0.75, or 1.0 μM ABA in 12-cm plastic petri dishes. Each agar plate was divided into seven sections, and 50 seeds of WT and AtTLP9 transgenic seeds were plated on each section. A seed was regarded as germinated when the radicle protruded through the seed coat."}, "Arabidopsis seedlings": {"test_system": "Arabidopsis seedlings", "experiment": "Seedling growth and greening on MS agar with ABA", "type": "in vivo, Arabidopsis thaliana", "details": "1 μM ABA and 1% sucrose", "method": "as §1\nIn contrast, under the same conditions, attlp9-1 and attlp9-2 plants continued to grow and about 45% of the seedlings continued to develop true leaves, although at slower rates than abi4-1 mutant does."}, "AtTLP7 gene expression": {"test_system": "AtTLP7 gene expression", "details": "channel 2 treated vs channel 1 control; cited from earlier work"}, "AtTLP10 gene expression": {"test_system": "AtTLP10 gene expression", "details": "channel 2 treated vs channel 1 control; cited from earlier work"}, "ASK1": {"biological_target": "T1, ASK1 (Arabidopsis thaliana, UniProt Q39255)", "T1 construct": "fragment containing the entire coding region of ASK1 (At1g75950); expressed in transfected cells; host or cells: Saccharomyces cerevisiae strain YRG-2", "T1 sequence (Q39255 1-160)": "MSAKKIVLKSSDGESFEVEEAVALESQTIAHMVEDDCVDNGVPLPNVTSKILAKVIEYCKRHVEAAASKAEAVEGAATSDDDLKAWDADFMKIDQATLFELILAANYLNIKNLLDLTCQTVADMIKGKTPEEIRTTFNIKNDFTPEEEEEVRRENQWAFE", "T1 sequence (Q9SQU1 1-380 partner)": "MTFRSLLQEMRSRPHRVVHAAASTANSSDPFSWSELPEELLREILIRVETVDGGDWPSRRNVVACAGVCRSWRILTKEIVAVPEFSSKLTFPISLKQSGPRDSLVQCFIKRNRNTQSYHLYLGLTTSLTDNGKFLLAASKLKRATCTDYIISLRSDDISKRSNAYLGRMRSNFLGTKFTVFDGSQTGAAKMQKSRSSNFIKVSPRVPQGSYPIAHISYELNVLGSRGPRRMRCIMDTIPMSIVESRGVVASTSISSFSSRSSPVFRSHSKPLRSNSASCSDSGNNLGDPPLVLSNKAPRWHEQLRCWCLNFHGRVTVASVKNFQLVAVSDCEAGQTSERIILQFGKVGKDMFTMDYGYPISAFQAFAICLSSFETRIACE", "experiment": "Yeast two-hybrid analysis", "type": "binding", "details": "AtTLP9 in pBD-GAL4 Cam, ASK1 in pAD-GAL4-2.1, yeast strain YRG-2", "description": "To test whether AtTLP could interact with ASK1, AtTLP9 was examined by the yeast two-hybrid analysis. Yeast two-hybrid vectors, pAD-GAL4-2.1 and pBD-GAL4 Cam (Stratagene, La Jolla, Calif.), were used for C-terminal GAL4 AD and BD fusion constructions, respectively. A 1.1-kb SalI-PstI fragment containing the entire coding region of AtTLP9 was cloned into the SalI-PstI site of the pBD-GAL4 Cam vector. A 480-bp EcoRI-PstI fragment containing the entire coding region of ASK1 (At1g75950) was cloned into the EcoRI-PstI site of the pAD-GAL4-2.1 vector. The yeast strain YRG-2 [MATa ura3-52 his3-200 ade2-101 lys2-801 trp1-901 leu2-3,112 ga14-542 ga180-538 LYS2::GAL1UAS-GAL1TATA-HIS3 URA3::(GAL43×17mer)-CYC1TATA-lacZ] was co-transformed with the two vectors. The Y2H analysis was performed according to the manufacturer's recommendations (Stratagene)."}}}
{"molecule": "CC1=CC(=O)CC(C)(C)[C@@]1(O)/C=C/C(C)=C\\C(=O)O", "note": "[ABA, Abscisic acid]", "values": [{"measurement": "germination rate", "setting": "Arabidopsis seeds; attlp9-1 and attlp9-2 mutant seeds", "result": "~50", "unit": "%"}, {"measurement": "germination rate", "setting": "Arabidopsis seeds; sense lines seeds (35S::AtTLP9 overexpression)", "result": "less than 10%"}, {"measurement": "seeds able to germinate", "setting": "Arabidopsis seeds; wild-type seeds", "result": "about 30%"}, {"measurement": "seedlings showing developmental arrest", "setting": "Arabidopsis seedlings; 10-d-old seedlings of sense lines", "result": 90, "unit": "%"}, {"measurement": "seedlings continuing to develop true leaves", "setting": "Arabidopsis seedlings; attlp9-1 and attlp9-2 plants", "result": "about 45%"}]}
{"molecule": "O=C(O)Cc1c[nH]c2ccccc12", "note": "[IAA]", "values": [{"measurement": "Ch2/Ch1 Normalized (Mean) AtTLP7", "setting": "AtTLP7 gene expression", "result": 2.21}]}
{"molecule": "O=C(O)Cc1cccc2ccccc12", "note": "[NAA]", "values": [{"measurement": "Ch2/Ch1 Normalized (Mean) AtTLP7", "setting": "AtTLP7 gene expression", "result": 0.46}, {"measurement": "Ch2/Ch1 Normalized (Mean) AtTLP10", "setting": "AtTLP10 gene expression", "result": 2.22}]}
{"molecule": "AtTLP9: Arabidopsis TUBBY-like protein, polypeptide SEQ ID NO: 9 (protein, listed as Arabidopsis sp.) MTFRSLLQEMRSRPHRVVHAAASTANSSDPFSWSELPEELLREILIRVETVDGGDWPSRRNVVACAGVCRSWRILTKEIVAVPEFSSKLTFPISLKQSGPRDSLVQCFIKRNRNTQSYHLYLGLTTSLTDNGKFLLAASKLKRATCTDYIISLRSDDISKRSNAYLGRMRSNFLGTKFTVFDGSQTGAAKMQKSRSSNFIKVSPRVPQGSYPIAHISYELNVLGSRGPRRMRCIMDTIPMSIVESRGVVASTSISSFSSRSSPVFRSHSKPLRSNSASCSDSGNNLGDPPLVLSNKAPRWHEQLRCWCLNFHGRVTVASVKNFQLVAVSDCEAGQTSERIILQFGKVGKDMFTMDYGYPISAFQAFAICLSSFETRIACE", "values": [{"measurement": "interaction with ASK1", "setting": "ASK1", "result": "physically interacts with ASK1"}]}
